# Tests used:
# [1] = Therapeutic index, ratio of CC50 for human CEmx174 cells expressing GFP to IC50 for HIV-1 LAI infected in human CEMx174-LTR-GFP CG8 cells; conditions: read-out: Ratio CC50/EC50
# Cytochrome P450 2D6 = Cytochrome P450 2D6 (Homo sapiens, UniProt P10635); experiment: Inhibition of recombinant CYP2D6 (unknown origin) after 20 mins by LC-MS/MS analysis; format: ADME
# [2] = tested on: Human immunodeficiency virus 1; experiment: Antiviral activity against HIV-1 LAI infected in human CEMx174-LTR-GFP CG8 cells assessed as inhibition of viral replication after 5 days; format: functional, organism-based; conditions: Human immunodeficiency virus 1, LAI, 120 h
# [3] = Cytotoxicity against human CEmx174 cells expressing GFP after 5 days by resazurin assay; format: cell-based
# Cytochrome P450 1A2 = molecular target: T1, Cytochrome P450 1A2 (Homo sapiens, UniProt P05177); experiment: Inhibition of recombinant CYP1A2 (unknown origin) after 10 mins by LC-MS/MS analysis; format: ADME
# T1 sequence (P05177 whole entry): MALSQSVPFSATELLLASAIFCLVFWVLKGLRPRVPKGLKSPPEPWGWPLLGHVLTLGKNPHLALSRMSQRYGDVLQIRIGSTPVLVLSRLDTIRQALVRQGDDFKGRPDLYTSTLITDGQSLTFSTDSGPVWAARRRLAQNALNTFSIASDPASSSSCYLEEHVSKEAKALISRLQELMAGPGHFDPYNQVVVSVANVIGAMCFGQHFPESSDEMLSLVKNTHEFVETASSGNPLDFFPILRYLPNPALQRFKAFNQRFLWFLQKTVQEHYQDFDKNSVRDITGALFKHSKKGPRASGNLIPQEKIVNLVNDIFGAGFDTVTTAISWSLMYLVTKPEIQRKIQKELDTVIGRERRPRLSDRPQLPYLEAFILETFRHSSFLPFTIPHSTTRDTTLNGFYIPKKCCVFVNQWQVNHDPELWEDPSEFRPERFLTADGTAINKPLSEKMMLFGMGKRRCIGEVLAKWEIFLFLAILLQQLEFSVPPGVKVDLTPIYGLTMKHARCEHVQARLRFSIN
# Cytochrome P450 2C9 = Cytochrome P450 2C9 (Homo sapiens, UniProt P11712); experiment: Inhibition of recombinant CYP2C9 (unknown origin) after 10 mins by LC-MS/MS analysis; format: ADME
# Chain of Cytochrome P450 2C9 (P11712 whole entry): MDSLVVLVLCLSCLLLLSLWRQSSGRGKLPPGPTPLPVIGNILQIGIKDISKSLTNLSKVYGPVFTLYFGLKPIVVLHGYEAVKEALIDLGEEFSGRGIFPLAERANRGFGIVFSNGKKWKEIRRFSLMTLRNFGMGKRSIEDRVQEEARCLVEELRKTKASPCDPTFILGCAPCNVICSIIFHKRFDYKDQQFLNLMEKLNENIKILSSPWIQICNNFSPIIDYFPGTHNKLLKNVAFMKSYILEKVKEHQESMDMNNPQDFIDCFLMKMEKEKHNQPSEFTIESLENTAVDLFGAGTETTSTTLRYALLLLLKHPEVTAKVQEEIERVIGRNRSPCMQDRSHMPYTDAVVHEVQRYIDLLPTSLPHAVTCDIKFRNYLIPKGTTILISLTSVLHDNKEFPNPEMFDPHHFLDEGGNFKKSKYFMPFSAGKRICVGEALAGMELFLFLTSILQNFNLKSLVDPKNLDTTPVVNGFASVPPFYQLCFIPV
# Cytochrome P450 3A4 = Cytochrome P450 3A4 (Homo sapiens, UniProt P08684); experiment: Inhibition of recombinant CYP3A4 (unknown origin) after 3 mins by LC-MS/MS analysis; format: ADME
# Chain of Cytochrome P450 3A4 (P08684 whole entry): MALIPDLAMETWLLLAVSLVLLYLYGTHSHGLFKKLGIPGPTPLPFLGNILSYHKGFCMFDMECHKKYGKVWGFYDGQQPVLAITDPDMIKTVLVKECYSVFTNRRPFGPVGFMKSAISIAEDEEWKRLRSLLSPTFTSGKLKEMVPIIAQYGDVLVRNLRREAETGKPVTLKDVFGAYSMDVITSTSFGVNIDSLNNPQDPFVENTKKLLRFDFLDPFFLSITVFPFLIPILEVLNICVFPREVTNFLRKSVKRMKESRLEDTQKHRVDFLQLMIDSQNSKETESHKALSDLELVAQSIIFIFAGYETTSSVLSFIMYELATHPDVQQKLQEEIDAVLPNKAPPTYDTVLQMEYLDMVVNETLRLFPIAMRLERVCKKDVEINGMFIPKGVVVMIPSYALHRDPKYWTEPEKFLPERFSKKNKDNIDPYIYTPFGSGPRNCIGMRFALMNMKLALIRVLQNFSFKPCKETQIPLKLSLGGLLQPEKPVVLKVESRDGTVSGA
# Chain of Cytochrome P450 2D6 (P10635 whole entry): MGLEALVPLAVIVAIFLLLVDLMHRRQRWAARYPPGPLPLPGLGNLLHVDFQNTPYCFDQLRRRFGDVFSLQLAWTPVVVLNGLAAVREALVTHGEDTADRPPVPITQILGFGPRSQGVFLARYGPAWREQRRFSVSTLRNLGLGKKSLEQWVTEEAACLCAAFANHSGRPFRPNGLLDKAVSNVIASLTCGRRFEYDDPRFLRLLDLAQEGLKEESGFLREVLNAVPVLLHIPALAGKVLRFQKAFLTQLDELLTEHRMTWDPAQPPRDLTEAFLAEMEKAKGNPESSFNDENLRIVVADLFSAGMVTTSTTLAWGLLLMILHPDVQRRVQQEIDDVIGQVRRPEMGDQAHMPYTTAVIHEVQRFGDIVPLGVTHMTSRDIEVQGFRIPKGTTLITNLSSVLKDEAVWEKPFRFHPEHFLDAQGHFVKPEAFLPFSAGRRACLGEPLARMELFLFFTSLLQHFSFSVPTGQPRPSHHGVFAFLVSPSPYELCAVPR
Compound,IC50 (Cytochrome P450 2D6),EC50 [2],IC50 (Cytochrome P450 1A2),IC50 (Cytochrome P450 2C9),IC50 (Cytochrome P450 3A4),selectivity ratio [1],CC50 at 120 h [3]
O=S(=O)(Cc1nc(-c2ccc(Cl)nc2)c2sccc2n1)c1cccc(Cl)c1,,3.2 µM,,,,21,70 µM
COc1ccc(-c2nc(CSc3cc(C)cc(C)c3)nc3ccsc23)cn1,,0.774 µM,,,,> 64,> 50 µM
COc1ccc(-c2nc(CSCc3cccc(Cl)c3)nc3ccsc23)cn1,,23 µM,,,,> 2.2,> 50 µM
COc1ccc(-c2nc(C(C)(C)S(=O)(=O)c3cccc(Cl)c3)nc3ccsc23)cn1,,2.3 µM,,,,> 21,> 50 µM
O=S(=O)(Cc1nc(-c2ccoc2)c2sccc2n1)c1cccc(Cl)c1,,0.775 µM,,,,> 64,> 50 µM
O=c1ccc(-c2nc(CS(=O)(=O)c3cccc(Cl)c3)nc3ccsc23)c[nH]1,,0.915 µM,,,,> 54,> 50 µM
COc1ccc(-c2nc(CC(O)c3cccc(Cl)c3)nc3ccsc23)cn1 (stereo not drawn),,9 µM,,,,3.4,31 µM
COc1ccc(Nc2nc(CS(=O)(=O)c3cccc(Cl)c3)nc3ccsc23)cc1,,3.2 µM,,,,18.8,60 µM
O=S(=O)(Cc1nc(-c2ccc(F)nc2)c2sccc2n1)c1cccc(Cl)c1,,6 µM,,,,6.6,40 µM
COc1ccc(-c2nc(CCS(=O)(=O)c3cccc(Cl)c3)nc3ccsc23)cn1,,5.4 µM,,,,> 9.2,> 50 µM
COc1ccc(-c2nc(/C=C\c3cccc(Cl)c3)nc3ccsc23)cn1,,8 µM,,,,6.6,53 µM
COc1ccc(-c2nc(CSc3cc(Cl)ccc3Cl)nc3ccsc23)cn1,,0.728 µM,,,,> 68,> 50 µM
COc1ccc(-c2nc(CSc3ccc(F)cc3F)nc3ccsc23)cn1,,5 µM,,,,> 10,> 50 µM
Cc1ccnc2c1NC(=O)c1cccnc1N2C1CC1 [NEVIRAPINE],,,,,,> 66,> 10 µM
COc1ccc(-c2nc(CSc3ccc(C(F)(F)F)cn3)nc3ccsc23)cn1,,18 µM,,,,> 2.7,> 50 µM
COc1ccc(-c2nc(CCc3cccc(Cl)c3)nc3ccsc23)cn1,,1.6 µM,,,,> 31,> 50 µM
COc1ccc(Oc2nc(CS(=O)(=O)c3cccc(Cl)c3)nc3ccsc23)cc1,,0.831 µM,,,,> 60,> 50 µM
COc1ccc(-c2nc(CSc3cccc(Cl)c3Cl)nc3ccsc23)cn1,,5 µM,,,,> 10,> 50 µM

# The next lines start with results.
IC50 (Cytochrome P450 2D6),EC50 [2],IC50 (Cytochrome P450 1A2),IC50 (Cytochrome P450 2C9),IC50 (Cytochrome P450 3A4),Compound,selectivity ratio [1],CC50 at 120 h [3]
> 10 µM,0.025 µM,> 10 µM,5.25 µM,6.71 µM,COc1ccc(-c2nc(CS(=O)(=O)c3cccc(Cl)c3)nc3ccsc23)cn1,> 400,> 10 µM
,0.189 µM,,,,O=S(=O)(Cc1nc(-c2ccncc2)c2sccc2n1)c1cccc(Cl)c1,> 264,> 50 µM
,0.27 µM,,,,O=S(=O)(Cc1nc(-c2ccnc(Cl)c2)c2sccc2n1)c1cccc(Cl)c1,233,63 µM
,0.322 µM,,,,COc1ccc(-c2nc(S(=O)(=O)c3cccc(Cl)c3)nc3ccsc23)cn1,> 155,> 50 µM
,0.59 µM,,,,O=S(=O)(Cc1nc(N2CCOCC2)c2sccc2n1)c1cccc(Cl)c1,> 84,> 50 µM
,0.087 µM,,,,COc1ccc(-c2nc(C(F)S(=O)(=O)c3cccc(Cl)c3)nc3ccsc23)cn1 (stereo not drawn),> 574,> 50 µM
,0.069 µM,,,,COc1ccc(-c2nc(C3(S(=O)(=O)c4cccc(Cl)c4)CC3)nc3ccsc23)cn1,> 724,> 50 µM
,0.262 µM,,,,COc1ccc(-c2nc(CSc3cccc(C(F)(F)F)c3)nc3ccsc23)cn1,> 190,> 50 µM
,0.014 µM,,,,COc1ccc(-c2nc(CSc3cccc(Cl)c3)nc3ccsc23)cn1,> 714,> 10 µM
,0.485 µM,,,,O=S(=O)(Cc1nc(-c2cccnc2)c2sccc2n1)c1cccc(Cl)c1,> 103,> 50 µM
,0.53 µM,,,,CCC1=C(C(=O)OCC2CCCCC2)C(c2cccc(O)c2)NC(=O)N1 (stereo not drawn),,> 10 µM
,0.14 µM,,,,O=S(=O)(Cc1nc(-c2cccs2)c2sccc2n1)c1cccc(Cl)c1,> 357,> 50 µM
,0.384 µM,,,,COc1ccc(-c2nc(COc3cccc(Cl)c3)nc3ccsc23)cn1,> 130,> 50 µM
,0.158 µM,,,,COc1ccc(-c2nc(CSc3cccc(Br)c3)nc3ccsc23)cn1,> 316,> 50 µM
,0.532 µM,,,,COc1ccc(-c2nc(C[S+]([O-])c3cccc(Cl)c3)nc3ccsc23)cn1 (stereo not drawn),> 93,> 50 µM
,0.2 µM,,,,COc1ccc(-c2nc(CC(=O)c3cccc(Cl)c3)nc3ccsc23)cn1,150,30 µM
,0.237 µM,,,,COc1ccc(-c2nc(C(F)(F)S(=O)(=O)c3cccc(Cl)c3)nc3ccsc23)cn1,> 210,> 50 µM
,0.27 µM,,,,c1ccc(-c2cc(CNc3nncc(-c4cccc5ccccc45)n3)n[nH]2)cc1,,> 10 µM
,0.103 µM,,,,COc1ccc(-c2nc(CS(=O)(=O)c3cccc(Cl)c3)nc3ccsc23)cc1,669,69 µM
,0.084 µM,,,,COc1ccc(-c2nc(C(C)S(=O)(=O)c3cccc(Cl)c3)nc3ccsc23)cn1 (stereo not drawn),> 595,> 50 µM
,0.672 µM,,,,COc1ccc(-c2nc(CNc3cccc(Cl)c3)nc3ccsc23)cn1,> 74,> 50 µM

# Source: ChEMBL document CHEMBL3352046, “Serendipitous discovery of 2-((phenylsulfonyl)methyl)-thieno[3,2-d]pyrimidine derivatives as novel HIV-1 replication inhibitors” (Bioorg Med Chem Lett, 2014)
